Paper doi:10.1101/2022.11.06.515312v1 (biorxiv, 2022)

What was measured:
Conditions in all cases: 5-50 uM substrate, 1 h, 0.333 mM MES pH 5.7, 2% galactose
OsLAT1 = target: T1, OsLAT1 (Oryza sativa, UniProt Q6Z8D0); test: uptake into yeast, UPLC-MS/MS, vector control subtracted
T1 sequence (Q6Z8D0 1-531): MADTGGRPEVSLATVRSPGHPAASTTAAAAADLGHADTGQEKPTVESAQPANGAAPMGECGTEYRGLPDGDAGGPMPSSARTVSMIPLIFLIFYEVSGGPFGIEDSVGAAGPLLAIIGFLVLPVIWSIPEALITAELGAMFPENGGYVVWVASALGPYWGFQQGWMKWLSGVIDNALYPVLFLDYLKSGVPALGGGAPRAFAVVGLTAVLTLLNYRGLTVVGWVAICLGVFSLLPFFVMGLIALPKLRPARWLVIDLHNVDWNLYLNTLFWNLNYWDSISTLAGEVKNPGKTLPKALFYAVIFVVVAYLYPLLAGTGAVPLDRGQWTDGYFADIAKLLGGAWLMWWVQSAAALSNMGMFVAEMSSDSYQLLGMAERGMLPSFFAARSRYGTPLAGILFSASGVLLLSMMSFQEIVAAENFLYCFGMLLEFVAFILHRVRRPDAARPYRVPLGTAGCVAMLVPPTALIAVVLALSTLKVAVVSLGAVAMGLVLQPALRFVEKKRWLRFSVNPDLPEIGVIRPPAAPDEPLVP

OsLAT5 = test: as above; type: cell-based, Oryza sativa subsp. japonica
[1] = substrate: c1cc[n+]2c(c1)-c1cccc[n+]1CC2; test: cells, lysate or membranes

Molecule: C[n+]1ccc(-c2cc[n+](C)cc2)cc1 [paraquat]
- Km (OsLAT1): 40.8 ± 9.61 µM
- Km (OsLAT5): 11.7 ± 4.04 µM

Molecule: c1cc[n+]2c(c1)-c1cccc[n+]1CC2 [diquat, 1,10-ethylene-2,20-bipyridinium dibromide]
- Km (OsLAT5): 13.8 ± 3.24 µM

B1: OsLAT1 (Oryza sativa Japonica Group) (protein)
chain: MADTGGRPEVSLATVRSPGHPAASTTAAAAADLGHADTGQEKPTVESAQPANGAAPMGECGTEYRGLPDGDAGGPMPSSARTVSMIPLIFLIFYEVSGGPFGIEDSVGAAGPLLAIIGFLVLPVIWSIPEALITAELGAMFPENGGYVVWVASALGPYWGFQQGWMKWLSGVIDNALYPVLFLDYLKSGVPALGGGAPRAFAVVGLTAVLTLLNYRGLTVVGWVAICLGVFSLLPFFVMGLIALPKLRPARWLVIDLHNVDWNLYLNTLFWNLNYWDSISTLAGEVKNPGKTLPKALFYAVIFVVVAYLYPLLAGTGAVPLDRGQWTDGYFADIAKLLGGAWLMWWVQSAAALSNMGMFVAEMSSDSYQLLGMAERGMLPSFFAARSRYGTPLAGILFSASGVLLLSMMSFQEIVAAENFLYCFGMLLEFVAFILHRVRRPDAARPYRVPLGTAGCVAMLVPPTALIAVVLALSTLKVAVVSLGAVAMGLVLQPALRFVEKKRWLRFSVNPDLPEIGVIRPPAAPDEPLVP
- Km [1]: 23.98 ± 6.77 µM
